pEC50: −log10 of the molar value.
Key:
S1P1 receptor = target: T1, S1P1 receptor (Homo sapiens, UniProt P21453); test: HTRF assay for direct cAMP measurement (S1P1 agonism); format: cell-based; details: recombinant CHO-K1 cells stably transfected with S1P1 receptors; decrease of cAMP
T1 construct: expressed in transfected cells; host or cells: CHO-K1 (ATCC CCL-61), stably transfected
From the text: Compounds were screened for agonists of the S1P1 receptor (e.g., human S1P1 receptor) using the HTRF® assay for direct cAMP measurement (Gabriel et al., Assay and Drug Development Technologies, 1:291-303, 2003) and recombinant CHO-K1 cells stably transfected with S1P1 receptors. CHO-K1 cells were obtained from ATCC® (Manassas, Va.; Catalog # CCL-61). An agonist of the S1P1 receptor was detected in the HTRF® assay for direct cAMP measurement as a compound which decreased cAMP concentration. HTRF® assay also was used to determine EC50 values for S1P1 receptor agonists.
HTRF® assay kit was purchased from Cisbio-US, Inc. (Bedford, Mass.; Catalog #62AM4PEC). The HTRF® assay supported by the kit is a competitive immunoassay between endogenous cAMP produced by the CHO-K1 cells and tracer cAMP labeled with the dye d2. The tracer binding is visualized by a monoclonal anti-cAMP antibody labeled with Cryptate. The specific signal (i.e., fluorescence resonance energy transfer, FRET) is inversely proportional to the concentration of unlabeled cAMP in the standard or sample.
The fluorescence ratio (665 nm/620 nm) of the standards (0.17 to 712 nM cAMP) included in the assay was calculated and used to generate a cAMP standard curve according to the kit manufacturer's instructions. The fluorescence ratio of the samples (test compound or compound buffer) was calculated and used to deduce respective cAMP concentrations by reference to the cAMP standard curve.
The HTRF® assay was carried out using a two-step protocol essentially according to the kit manufacturer's instructions, in 20 μL total volume per well in 384-well plate format (ProxiPlates; PerkinElmer, Fremont, Calif.; catalog #6008280). […] The plate was then further incubated at room temperature for 1 hour, after which the assay plate was read.
HTRF® readout was accomplished using a PHERAstar (BMG LABTECH Inc., Durham, N.C.) or EnVision™ (PerkinElmer, Fremont Calif.) microplate reader.

[1] = system: peripheral blood lymphocyte (PBL) count; test: Mouse peripheral lymphocyte lowering (PLL) assay; format: in vivo; details: male BALB/c mice, oral dose, 5 hours post-dose, vs vehicle; FIGS. 1 and 2
Description: Male BALB/c mice (Charles River Laboratories, Wilmington, Mass.) were housed four per cage and maintained in a humidity-controlled (40 to 60%) and temperature-controlled (68 to 72° F.) facility on a 12 h:12 h light/dark cycle (lights on at 6:30 am) with free access to food (Harlan Teklad, Orange, Calif., Rodent Diet 8604) and water. Mice were allowed one week of habituation to the animal facility before testing.
(§1) Mice were given an oral dose of Compound 5, Compound 7 or dosing vehicle (0.5% methylcellulose) in a total volume of 10 mL/kg. Peripheral blood samples were collected at 5 hours post-dose. The mice were anesthetized with isoflurane and blood was collected via cardiac puncture. A complete cell count (CBC), including lymphocyte count, was obtained using a CELL-DYN® 3700 (Abbott Laboratories, Abbott Park, Ill.) instrument. Results are presented in FIGS. 1 and 2, in which peripheral blood lymphocyte (PBL) count is shown for the 5 hour group.
as §1, with “given a 1.00 mg/kg” for “given an”, “of the 2nd enantiomer of compound 12 (isolated after resolution of compound 12 by HPLC, with a retention time of 13.9 min per the conditions reported in Example 1.29)” for “of Compound 5, Compound 7”, “(0.5% methylcellulose in sterile water)” for “(0.5% methylcellulose)”, “in FIG. 7,” for “in FIGS. 1 and 2,”

S1P3 receptor = S1P3 receptor (Homo sapiens, UniProt Q99500); details: attributed to agonism of the S1P3 receptor; cited from earlier work
S1P3 receptor, sequence (Q99500 whole entry): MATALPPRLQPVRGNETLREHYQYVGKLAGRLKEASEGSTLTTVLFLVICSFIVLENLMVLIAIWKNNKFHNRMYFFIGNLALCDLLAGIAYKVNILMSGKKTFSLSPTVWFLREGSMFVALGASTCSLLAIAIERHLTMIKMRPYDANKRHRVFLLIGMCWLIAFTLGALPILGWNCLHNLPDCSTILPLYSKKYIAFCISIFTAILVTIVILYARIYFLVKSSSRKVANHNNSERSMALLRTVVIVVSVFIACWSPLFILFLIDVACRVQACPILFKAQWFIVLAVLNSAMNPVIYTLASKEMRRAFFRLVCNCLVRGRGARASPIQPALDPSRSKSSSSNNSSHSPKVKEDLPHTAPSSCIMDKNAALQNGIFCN

[2] = system: experimental autoimmune myasthenia gravis (EAMG); details: prophylactic oral administration, 1 mg/kg, three times a week, C57BL/6 mice; cited from earlier work

T1 sequence (P21453 whole entry): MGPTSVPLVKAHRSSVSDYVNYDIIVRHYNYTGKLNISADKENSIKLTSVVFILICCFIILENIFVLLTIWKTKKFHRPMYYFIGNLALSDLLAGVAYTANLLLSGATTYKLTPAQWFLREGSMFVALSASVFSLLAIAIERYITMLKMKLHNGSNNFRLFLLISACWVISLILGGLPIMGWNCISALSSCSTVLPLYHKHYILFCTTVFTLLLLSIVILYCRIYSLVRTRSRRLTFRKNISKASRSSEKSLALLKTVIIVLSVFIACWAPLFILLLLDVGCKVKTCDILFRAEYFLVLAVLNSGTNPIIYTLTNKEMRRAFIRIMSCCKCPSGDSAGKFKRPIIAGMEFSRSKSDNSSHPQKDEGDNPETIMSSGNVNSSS

| SMILES | pEC50 (S1P1 receptor) | activity for inducing PBL lowering (lymphopenia) [1] | also measured |
| --- | --- | --- | --- |
| N#Cc1cc(COc2ccc3[nH]c4c(c3c2)CCC4CC(=O)O)cc(OC(F)(F)F)c1 (stereo not shown) [Compound 4, 2-(7-(3-cyano-5-(trifluoromethoxy)benzyloxy)-1,2,3,4-tetrahydrocyclopenta[b]indol-3-yl)acetic acid] | 7.80 | – | – |
| O=C(O)CC1CCc2c1[nH]c1ccc(OCc3cc(C(F)(F)F)cc(C(F)(F)F)c3)cc21 (stereo not shown) [Compound 10, 2-(7-(3,5-bis(trifluoromethyl)benzyloxy)-1,2,3,4-tetrahydrocyclopenta[b]indol-3-yl)acetic acid] | 7.59 | – | – |
| O=C(O)CC1CCc2c1[nH]c1ccc(OCc3ccc(C(F)(F)F)cc3C(F)(F)F)cc21 (stereo not shown) [Compound 8, 2-(7-(2,4-bis(trifluoromethyl)benzyloxy)-1,2,3,4-tetrahydrocyclopenta[b]indol-3-yl)acetic acid] | 8.05 | – | – |
| N#Cc1cc(COc2ccc3[nH]c4c(c3c2)CCC4CC(=O)O)ccc1OC(F)(F)F (stereo not shown) [Compound 7, 2-(7-(3-cyano-4-(trifluoromethoxy)benzyloxy)-1,2,3,4-tetrahydrocyclopenta[b]indol-3-yl)acetic acid] | – | exhibited activity for inducing PBL lowering (lymphopenia) | – |
| CCCCCCCCc1ccc(CCC(N)(CO)CO)cc1 [FTY720] | – | – | adverse event in clinical trials (S1P3 receptor): transient asymptomatic bradycardia; development of EAMG [2]: completely prevented |
| CC(C)Oc1ccc(COc2ccc3[nH]c4c(c3c2)CCC4CC(=O)O)cc1C#N (stereo not shown) [Compound 5, 2-(7-(3-cyano-4-issopropoxybenzyloxy)-1,2,3,4-tetrahydrocyclopenta[b]indol-3-yl)acetic acid] | – | exhibited activity for inducing PBL lowering (lymphopenia) | – |
